Experimental data as given in paper PMC10527014 (Antiviral research, 2023).
≈ marks a conversion by molar mass, not a printed value. Entries after “also recorded” stand apart in the source; their conditions may differ. Where two headings read alike, the source gives them in different places.

What was measured:
[1] = tested on: Coxsackievirus B3-Woodruff (CVB3); type: cell-based; details: read-out: Inhibitory concentration EC50 against CVB3-Woodruff; HeLa cells; infecting at low MOI 0.1 PFU / cell and adding drug after infection is established; ± SEM
[2] = tested on: Coxsackie B3 HA 201933; test: Virus yield reduction assay, Coxsackie B3 HA 201933; type: cell-based; details: read-out: 90% Effective concentration EC90; Coxsackie B3 HA 201933, Vero 76, virus yield reduction
[3] = tested on: EV-D68 US/KY/14-18953; test: Virus yield reduction assay, EV-D68 US/KY/14-18953; type: cell-based; details: read-out: 90% Effective concentration EC90, EV-D68 US/KY/14-18953, RD
[4] = tested on: Polio virus 1 Mahoney; type: cell-based; details: read-out: 50% Effective concentration EC50, Vero 76, CPE
[5] = tested on: Polio virus 1 Mahoney; type: cell-based; details: read-out: 90% Effective concentration EC90, Vero 76, virus yield reduction
[6] = tested on: Human Echovirus-11 Gregory; test: Virus yield reduction assay, Human Echovirus-11 Gregory; type: cell-based; details: read-out: 90% Effective concentration EC90, RD, lowest concentration tested 0.032 μM
[7] = tested on: Human Echovirus-30 Bastianni; test: Virus yield reduction assay, Human Echovirus-30 Bastianni; type: cell-based; details: read-out: 90% Effective concentration EC90, RD, lowest concentration tested 0.032 μM
[8] = tested on: MDCK; test: Cytotoxicity; type: cell-based; details: read-out: 50% Cytotoxic concentration CC50, line of Influenza H1N1
[9] = tested on: EV-D68; test: In vitro inhibition of EV-D68; type: cell-based; details: read-out: EC50 against EV-D68; discussion
[10] = tested on: EVD68, strain IL/14-18952 (IL52); test: Preliminary EVD68 inhibition at single concentration, VP1 qPCR in RD cells; type: cell-based, EV-D68; details: 5 μM, preliminary work, Fig. S2
[11] = Solubility; type: physicochemical
[12] = target: CYP1A2 (Homo sapiens, UniProt P05177); test: CYP inhibition, CYP1A2; type: in vitro ADME; details: read-out: CYP inhibition
Sequence of CYP1A2 (P05177 whole entry): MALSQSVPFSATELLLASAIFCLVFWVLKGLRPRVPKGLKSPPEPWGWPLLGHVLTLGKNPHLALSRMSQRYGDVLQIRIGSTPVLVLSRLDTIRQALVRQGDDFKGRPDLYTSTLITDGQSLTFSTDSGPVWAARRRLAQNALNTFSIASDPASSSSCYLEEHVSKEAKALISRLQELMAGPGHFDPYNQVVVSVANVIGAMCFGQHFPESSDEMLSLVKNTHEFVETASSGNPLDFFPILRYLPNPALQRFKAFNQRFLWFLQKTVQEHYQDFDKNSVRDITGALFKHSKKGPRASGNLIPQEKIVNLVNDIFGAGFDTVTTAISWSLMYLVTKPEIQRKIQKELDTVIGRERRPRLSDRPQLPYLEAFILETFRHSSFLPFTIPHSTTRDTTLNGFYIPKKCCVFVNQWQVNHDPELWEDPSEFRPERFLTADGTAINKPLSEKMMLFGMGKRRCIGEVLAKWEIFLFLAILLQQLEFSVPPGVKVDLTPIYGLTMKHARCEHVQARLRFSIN

[13] = target: CYP2D6 (Homo sapiens, UniProt P10635); test: CYP inhibition, CYP2D6; type: in vitro ADME; details: read-out: CYP inhibition
Sequence of CYP2D6 (P10635 whole entry): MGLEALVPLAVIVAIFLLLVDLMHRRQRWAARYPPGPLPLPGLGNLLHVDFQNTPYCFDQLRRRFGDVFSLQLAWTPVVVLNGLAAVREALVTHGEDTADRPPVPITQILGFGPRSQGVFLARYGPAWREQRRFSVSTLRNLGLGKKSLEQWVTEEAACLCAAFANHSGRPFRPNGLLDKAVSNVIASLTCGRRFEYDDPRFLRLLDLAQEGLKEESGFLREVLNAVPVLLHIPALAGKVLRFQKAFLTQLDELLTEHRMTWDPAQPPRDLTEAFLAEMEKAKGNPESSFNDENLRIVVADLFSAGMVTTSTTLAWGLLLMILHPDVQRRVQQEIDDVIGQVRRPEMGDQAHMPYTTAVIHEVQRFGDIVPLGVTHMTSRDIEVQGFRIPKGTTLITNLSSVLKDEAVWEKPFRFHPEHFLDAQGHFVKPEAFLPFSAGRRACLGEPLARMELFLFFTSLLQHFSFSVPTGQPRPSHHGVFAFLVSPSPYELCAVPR

[14] = target: CYP2C19 (Homo sapiens, UniProt P33261); test: CYP inhibition, CYP2C19; type: in vitro ADME; details: read-out: CYP inhibition
Sequence of CYP2C19 (P33261 whole entry): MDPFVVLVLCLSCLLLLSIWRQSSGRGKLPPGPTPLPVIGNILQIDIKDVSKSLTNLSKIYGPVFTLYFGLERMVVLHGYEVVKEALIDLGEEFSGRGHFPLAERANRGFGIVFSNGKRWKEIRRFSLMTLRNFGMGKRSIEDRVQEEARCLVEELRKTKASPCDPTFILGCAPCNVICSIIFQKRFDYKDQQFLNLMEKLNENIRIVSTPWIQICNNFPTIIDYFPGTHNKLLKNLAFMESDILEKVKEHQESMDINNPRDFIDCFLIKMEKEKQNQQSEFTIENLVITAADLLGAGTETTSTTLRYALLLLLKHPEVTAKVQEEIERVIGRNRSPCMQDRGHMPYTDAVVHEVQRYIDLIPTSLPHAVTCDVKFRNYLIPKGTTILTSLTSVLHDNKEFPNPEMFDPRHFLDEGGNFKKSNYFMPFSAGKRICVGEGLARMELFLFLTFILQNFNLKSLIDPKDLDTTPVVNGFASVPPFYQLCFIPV

[15] = Mouse liver microsomes stability; type: in vitro ADME
[16] = Human liver microsomes stability; type: in vitro ADME
[17] = Mouse plasma protein binding; type: in vitro ADME
[18] = Human plasma protein binding; type: in vitro ADME
[19] = Human plasma stability; type: in vitro ADME; details: @ 5 hr, 37°C
[20] = tested on: Caco-2; test: Caco-2 permeability; type: in vitro ADME
[21] = target: hERG (Homo sapiens, UniProt Q12809); test: hERG inhibition; details: read-out: hERG inhibition IC50
Sequence of hERG (Q12809 whole entry): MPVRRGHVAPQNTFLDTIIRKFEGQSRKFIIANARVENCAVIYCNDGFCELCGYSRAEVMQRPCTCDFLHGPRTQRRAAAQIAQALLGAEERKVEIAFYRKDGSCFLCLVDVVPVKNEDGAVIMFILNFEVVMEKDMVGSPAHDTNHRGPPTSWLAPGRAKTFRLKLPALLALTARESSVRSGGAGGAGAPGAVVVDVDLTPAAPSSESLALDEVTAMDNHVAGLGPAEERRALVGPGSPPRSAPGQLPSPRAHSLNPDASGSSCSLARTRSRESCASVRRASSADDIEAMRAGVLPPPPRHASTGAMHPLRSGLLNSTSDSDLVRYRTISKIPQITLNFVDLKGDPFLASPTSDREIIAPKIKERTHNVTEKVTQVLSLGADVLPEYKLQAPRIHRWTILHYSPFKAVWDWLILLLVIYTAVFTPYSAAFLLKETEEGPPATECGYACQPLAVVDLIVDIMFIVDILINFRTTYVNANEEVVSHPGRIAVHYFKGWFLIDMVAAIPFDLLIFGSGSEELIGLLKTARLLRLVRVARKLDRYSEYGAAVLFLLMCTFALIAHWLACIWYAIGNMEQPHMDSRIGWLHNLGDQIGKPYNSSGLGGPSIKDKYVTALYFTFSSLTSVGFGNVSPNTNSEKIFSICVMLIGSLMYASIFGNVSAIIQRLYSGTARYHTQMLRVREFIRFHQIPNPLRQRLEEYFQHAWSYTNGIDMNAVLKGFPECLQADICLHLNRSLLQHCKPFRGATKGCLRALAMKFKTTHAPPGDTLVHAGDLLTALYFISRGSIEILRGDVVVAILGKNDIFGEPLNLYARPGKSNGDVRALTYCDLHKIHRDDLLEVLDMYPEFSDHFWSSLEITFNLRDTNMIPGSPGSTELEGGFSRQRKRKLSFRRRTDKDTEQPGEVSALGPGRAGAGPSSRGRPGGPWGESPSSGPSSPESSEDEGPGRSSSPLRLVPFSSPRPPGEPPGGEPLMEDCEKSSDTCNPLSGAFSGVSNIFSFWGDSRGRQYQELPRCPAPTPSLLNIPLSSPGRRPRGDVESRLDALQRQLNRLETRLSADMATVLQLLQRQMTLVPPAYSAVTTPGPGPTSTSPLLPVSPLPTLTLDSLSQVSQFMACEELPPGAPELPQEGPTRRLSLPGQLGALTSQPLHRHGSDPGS

[22] = Maximum tolerated dose study in AG129 mice; type: in vivo
[23] = tested on: EV-D68 MP30 PP (mouse-adapted US/MO/14-18949); test: EV-D68 respiratory infection model in four-week-old AG129 mice; type: in vivo
[24] = tested on: Coxsackie B3 HA 201933; details: read-out: 50% Effective concentration EC50; Coxsackie B3 HA 201933, Vero 76, CPE
[25] = tested on: Coxsackie B3 Nancy; details: read-out: 50% Effective concentration EC50, Vero 76, CPE
[26] = tested on: EV-D68 US/KY/14-18953; details: read-out: 50% Effective concentration EC50; EV-D68 US/KY/14-18953, RD, CPE
[27] = tested on: EV-D68 US/MO/14-18949; details: read-out: 50% Effective concentration EC50; EV-D68 US/MO/14-18949, RD; n=3, 4 concentrations (log10 dilution series)
[28] = tested on: EV-71 Tainan/4643/98; details: read-out: 50% Effective concentration EC50; EV-71 Tainan/4643/98, Vero 76, CPE
[29] = tested on: Human Echovirus-11 Gregory; details: read-out: 50% Effective concentration EC50, RD, lowest concentration tested 0.032 μM
[30] = tested on: Human Echovirus-30 Bastianni; details: read-out: 50% Effective concentration EC50, RD, lowest concentration tested 0.032 μM
[31] = tested on: Vero 76
[32] = target: CYP3A4 (Homo sapiens, UniProt P08684)
Sequence of CYP3A4 (P08684 whole entry): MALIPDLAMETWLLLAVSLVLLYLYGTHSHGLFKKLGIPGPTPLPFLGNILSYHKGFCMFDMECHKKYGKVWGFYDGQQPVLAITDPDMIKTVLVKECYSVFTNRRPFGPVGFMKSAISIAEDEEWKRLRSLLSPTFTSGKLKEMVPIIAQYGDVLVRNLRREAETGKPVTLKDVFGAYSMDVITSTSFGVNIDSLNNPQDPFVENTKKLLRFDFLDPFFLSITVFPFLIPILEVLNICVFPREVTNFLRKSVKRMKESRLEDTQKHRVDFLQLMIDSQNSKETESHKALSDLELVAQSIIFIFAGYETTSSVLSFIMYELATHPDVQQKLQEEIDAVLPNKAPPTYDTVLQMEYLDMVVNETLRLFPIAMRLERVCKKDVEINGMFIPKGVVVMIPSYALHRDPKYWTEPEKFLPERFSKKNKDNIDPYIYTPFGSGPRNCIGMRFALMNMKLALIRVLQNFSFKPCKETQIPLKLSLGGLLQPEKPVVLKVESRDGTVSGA

In the case of `Cc1cc(-c2noc(C(F)(F)F)n2)ccc1OCCCc1cc(C(=O)N(C)C)no1` [compound 11526092, 3-(3-methyl-4-(3-(3-N,N-dimethylcarbamoyl-isoxazol-5-yl)propoxy)phenyl)-5-trifluoromethyl-1,2,4-oxadiazole], the EC50 [1] is reported as 16 nM, the EC90 [2] is reported as 7780 nM and the EC90 [3] is reported as 78 nM. It also gave an EC50 [4] of 570 nM, an EC90 [5] of 520 nM and an EC90 [6] of under 32 nM. The EC90 [7] was under 32 nM, the CC50 [8] was 44800 nM and the EC50 [9] was 59 nM. The “Antiviral effect in RD cells infected with EV-D68” value [10] was “greatest antiviral effect”, the “Solubility (in words)” value [11] was “low solubility” and the Solubility ([11]; Buffer pH 7.4) was 0.11 µM (≈ 0.0467 µg/mL). For the same molecule, the Solubility ([11]; Fasted State Simulated Gastric Fluid (FaSSGF)) was 0.55 µM (≈ 0.233 µg/mL), the Solubility ([11]; Fasted State Simulated Intestinal Fluid (FaSSIF)) was 12.05 µM (≈ 5.11 µg/mL) and the IC50 [12] was over 50000 nM. The IC50 [13] was over 50000 nM, the IC50 [14] was 2100 nM and the “Mouse liver microsomes stability (in words)” value [15] was “poor mouse microsomal stability; also recorded: unstable”. The “Mouse liver microsomes CLint” value ([15]; mouse) was 70.6 μL/min/mg protein, the “Mouse liver microsomes t1/2” value ([15]; mouse) was 19.6 min and the “Human liver microsomes stability (in words)” value [16] was “metabolically stable”. For the same molecule, the “Human liver microsomes T1/2” value ([16]; human) was 55.3 min, the “Human liver microsomes clearance” value ([16]; human) was 25.1 μL /min/mg protein and the “Mouse plasma protein binding, stability” value [17] was 88.1%. For the same molecule, the “Mouse plasma protein binding, bound” value ([17]; mouse) was 99.8%, the “Human plasma protein binding, stability” value [18] was 93.9% and the “Human plasma protein binding, bound” value ([18]; human) was 99.7%. For the same molecule, the Human plasma stability [19] was 93.9% @ 5 hr, 37 °C, the “Caco-2 Efflux ratio” value [20] was 3.5 and the “Caco-2 Papp A-B” value [20] was 880 ×10⁻⁶ cm/s. For the same molecule, the “Caco-2 Papp B-A” value [20] was 3090 ×10⁻⁶ cm/s, the “P-gp substrate (in words, from Caco-2 data)” value [20] was “likely a P-gp substrate” and the IC50 [21] was over 100000 nM. The Maximum tolerated dose ([22]; given IP) was over 10 mg/kg, the Maximum tolerated dose ([22]; given PO) was over 100 mg/kg and the “Lung concentration of IFN-γ” value ([23]; 10 mg/kg, day 1) was “reductions”. For the same molecule, the “Lung concentration of IL-10” value ([23]; 10 mg/kg, day 5) was “increase”, the Lung virus titer ([23]; 30 mg dose, day 5 p.i., P≤0.05 vs placebo) was “significant reduction” and the “Lung concentration of MIP-1α” value ([23]; 30 mg/kg, day 5) was “increase”. The “Lung concentration of MCP-1” value ([23]; 100 mg/kg, day 1) was “reductions”, the “Lung concentration of IL-1α” value ([23]; 100 mg/kg, day 3) was “increase” and the “Lung concentration of IL-1β” value ([23]; 100 mg/kg, day 3) was “increase”. The “Lung concentration of IL-4” value ([23]; 100 mg/kg, day 3) was “increase”, the “Lung concentration of IL-6” value ([23]; 100 mg/kg, day 3) was “increase” and the “Protection from weight loss (percentage of initial body weight)” value ([23]; 100 mg/kg/d PO, P<0.05, Fig. S16) was “significant protection from weight loss”. For the same molecule, the Decrease of viremia ([23]; abstract) was 3 log, the “Lung concentration of RANTES” value ([23]; all doses, day 1, P≤0.01 - P≤0.0001) was “significantly reduced” and the “Lung concentration of GM-CSF” value ([23]; all doses, day 1, P≤0.01 - P≤0.001) was “significantly reduced”. The “Lung concentration of IL-3” value ([23]; all doses, day 1, P≤0.05) was “significantly reduced”, the “Lung concentration of IL-5” value ([23]; all doses, day 1, P≤0.05) was “significantly reduced” and the “Virus titers in the blood (viremia)” value ([23]; all doses, days 1 and 3 p.i., P≤0.0001) was “reduce viremia”. The Lung virus titers ([23]; day 3 p.i., this study) was “did not demonstrate any antiviral activity”, the “Reduction in lung titer” value ([23]; day 5, abstract) was 1 log and the EC50 [24] was 1010 nM. The EC50 [25] was 1270 nM, the EC50 [26] was 42 nM and the EC50 [27] was under 100 nM. The EC50 [28] was 4240 nM, the EC50 [29] was under 32 nM and the EC50 [30] was under 32 nM. For the same molecule, the CC50 [31] was 10800 nM, the CC50 ([31]; read-out: 50% Cytotoxic concentration CC50, Vero 76, line of Coxsackie B3 HA 201933) was 8000 nM and the CC50 ([31]; read-out: 50% Cytotoxic concentration CC50, Vero 76, line of Coxsackie B3 Nancy) was 8000 nM. For the same molecule, the CC50 ([31]; read-out: 50% Cytotoxic concentration CC50, Vero 76, line of EV-71) was 8250 nM, the CC50 ([31]; read-out: 50% Cytotoxic concentration CC50, Vero 76, line of SARS-CoV-2) was 7540 nM and the “Effect on CYP3A4 (in words)” value ([32]; human liver microsomes, at higher concentrations (Fig. S21)) was “activation (or autoactivation) of CYP3A4; also recorded: * CYP3A4 demonstrates activation with 11526092”. The IC50 ([32]; read-out: CYP inhibition, CYP3A4) was over 50000 nM.
